Experimental data as given in publication PMC4894664 (Cancer cell, 2015).
Blank lines part the entries; values can stand above or below the compound they belong to.

Columns and labels:
A375 (BRAF V600E) cells = assay: p-ERK in A375 cells; format: cell-based
[1] = system: SK-MEL-239 parental cells (BRAF V600E); assay: p-ERK inhibition in SK-MEL-239 parental cells; format: cell-based; conditions: read-out: concentration inhibiting monomer driven signaling (p-ERK IC50)
[2] = system: SK-MEL-30 (NRAS Q61K) cells; assay: p-ERK in SK-MEL-30 cells, with and without drug washout; format: cell-based
[3] = system: SK-MEL-239 C4 clone (which expresses p61 BRAF V600E); assay: p-ERK inhibition in SK-MEL-239 C4 clone; format: cell-based; conditions: read-out: concentration inhibiting dimer signaling (p-ERK IC50)
BRAF V600E tumor cells = assay: ERK phosphorylation after drug washout in BRAF V600E tumor cells; format: cell-based; conditions: 1 hr exposure then washout
[4] = system: BRAF V600E T529N or p61 BRAF V600E T529N; assay: ERK signaling in cells expressing BRAF gatekeeper mutants; format: cell-based; conditions: cells expressing BRAF V600E T529N or p61 BRAF V600E T529N (gatekeeper mutation)
[5] = system: A549 lung cancer (mutant KRAS G12S); assay: p-ERK in A549 cells; format: cell-based; conditions: 1 hr
SK-MEL-239 tumors = assay: SK-MEL-239 subcutaneous xenograft; format: in vivo, nude mice; conditions: for growth of SK-MEL-239 tumors: daily for 32 days, 75 mg/kg vemurafenib or 100 mg/kg BGB659; for ERK signaling in SK-MEL-239 tumors: tumor extracts, Western blot, 75 mg/kg vemurafenib or 100 mg/kg BGB659 daily
[6] = system: SK-MEL-239 C4 tumors (p61 V600E); assay: SK-MEL-239 C4 subcutaneous xenograft; format: in vivo, nude mice; conditions: for activity against SK-MEL-239 C4 tumors (growth): daily for 32 days, 75 mg/kg vemurafenib or 100 mg/kg BGB659
[7] = system: SK-MEL-2 melanoma (mutant NRAS Q61R); assay: p-ERK in SK-MEL-2 cells; format: cell-based; conditions: 1 hr
[8] = system: SKBR3 breast cancer (HER2-activated wild type RAS); assay: RAS activity and p-ERK in SKBR3 cells; format: cell-based
[9] = Tolerability of daily dosing in mice; format: in vivo; conditions: 100 mg/kg given daily
[10] = system: RAF mutants that constitutively dimerize; assay: ERK signaling in SKBR3 cells expressing RAF mutants that constitutively dimerize; format: cell-based; conditions: SKBR3, 1 μM drug, 1 hr
[11] = system: A375 in which NRAS Q61K is expressed; assay: p-ERK in A375 cells expressing NRAS Q61K; format: cell-based; conditions: A375 with mutant NRAS overexpressed, 1 hr
[12] = system: second site of the WT RAF dimer in SK-MEL-30 NRAS mutant cells; format: cell-based; conditions: p-ERK; first site occupied by LGX818
[13] = system: JVM-3, a BRAF K601N CLL cell line; assay: ERK signaling and proliferation of JVM-3; format: cell-based
BRAF/CRAF heterodimers = BRAF/CRAF heterodimers (Homo sapiens, UniProt P04049+P15056); assay: Induction of BRAF/CRAF heterodimers; format: cell-based; conditions: HeLa and two melanoma cell lines with mutant NRAS, 1 hr
p61 BRAF V600E = p61 BRAF V600E (Homo sapiens, UniProt P15056, DEL169-380/V600E); assay: ERK signaling; format: cell-based; conditions: SKBR3, drug 1 hr
[14] = SK-MEL-30 (mutant NRAS, WT RAF)
[15] = SK-MEL-30, 3 μM for 1 hr then washout

IC50 [3]: 287 nM
SMILES: COC(=O)N[C@@H](C)CNc1nccc(-c2cn(C(C)C)nc2-c2cc(Cl)cc(NS(C)(=O)=O)c2F)n1 [LGX818]
p-ERK after drug washout (A375 (BRAF V600E) cells; A375, 3 μM for 1 hr then washout): remained inhibited in A375 for up to 24 hr | IC50 [1]: 14 nM | concentration of peak induction of ERK [2, 14]: 100 nM | concentrations causing concentration-dependent inhibition of ERK signaling [2, 14]: 300 to 3000 nM | half-time of p-ERK rise after drug washout [2, 15]: 10 min | p-ERK 24 hr after washout relative to basal [2, 15]: three fold elevated compared to basal | maximum p-ERK after drug washout relative to basal ([2]; SK-MEL-30, 3 μM for 1 hr then washout, maximum approximately 1 hr after washout): about five times higher than basal | ERK phosphorylation 1 hr after washout of the drug (BRAF V600E tumor cells): remains inhibited

SMILES: CC(C)(N)c1cc(C(=O)N[C@@H]2CCc3ccc(Oc4ccnc5c4CCC(=O)N5)cc3C2)cc(C(F)(F)F)c1 [BGB659]
ERK signaling resistant to the drug [4]: resistant | inhibition of ERK signaling at 1 μM (A375 (BRAF V600E) cells; A375, 1 μM, 1 hr): almost complete inhibition | IC50 (A375 (BRAF V600E) cells; read-out: IC50 for inhibition of ERK signaling, A375, 1 hr): 100 to 300 nM | ERK phosphorylation at 1 μM ([5]; A549, 1 μM): declined to pretreatment levels | ERK phosphorylation at 10 μM ([5]; A549, 10 μM): some residual activity remained | growth of SK-MEL-239 tumors (SK-MEL-239 tumors): effectively inhibited | ERK signaling in SK-MEL-239 tumors (SK-MEL-239 tumors): potently inhibited | activity against SK-MEL-239 C4 tumors (growth) [6]: had activity | ERK signaling in SK-MEL-239 C4 tumors ([6]; tumor extracts, Western blot, 75 mg/kg vemurafenib or 100 mg/kg BGB659 daily): only BGB659 inhibited | decline of ERK phosphorylation ([7]; SK-MEL-2, 1 μM): 40% | ERK phosphorylation at 10 μM ([7]; SK-MEL-2, 10 μM): approached complete inhibition | decline of ERK phosphorylation ([8]; SKBR3, 1 μM, 1 hr): 40% | ERK phosphorylation at 10 μM ([8]; SKBR3, 10 μM, 1 hr): approached complete inhibition | weight loss or other toxicity [9]: unassociated with weight loss or other obvious toxicity | sensitivity of ERK signaling driven by RAF mutants that constitutively dimerize [10]: sensitive | inhibition of ERK signaling at 1 μM [11]: almost complete inhibition | potency for inhibition of monomers and the second site of dimers [12]: 100 to 300 nM

SMILES: CS(=O)(=O)CCNCc1ccc(-c2ccc3ncnc(Nc4ccc(OCc5cccc(F)c5)c(Cl)c4)c3c2)o1 [lapatinib]
RAS activity and ERK signaling ([8]; SKBR3, 1 hr exposure): potently suppressed

SMILES: CCCS(=O)(=O)Nc1ccc(F)c(C(=O)c2c[nH]c3ncc(-c4ccc(Cl)cc4)cc23)c1F [vemurafenib]
ERK signaling resistant to the drug [4]: resistant | growth of SK-MEL-239 tumors (SK-MEL-239 tumors): effectively inhibited | ERK signaling in SK-MEL-239 tumors (SK-MEL-239 tumors): potently inhibited | activity against SK-MEL-239 C4 tumors (growth) [6]: only the latter had activity | effect on ERK signaling and proliferation of JVM-3 [13]: resistant | effect on ERK signaling [2, 14]: activates ERK signaling | sensitivity of ERK signaling driven by RAF mutants that constitutively dimerize [10]: resistant | ERK phosphorylation 1 hr after washout of the drug (BRAF V600E tumor cells): returned to pre-exposure levels

fold higher concentrations required to inhibit ERK driven by p61 V600E dimers than by p61 V600E R509H monomers (p61 BRAF V600E): same relative difference
SMILES: CC(C)(C)c1nc(-c2cccc(NS(=O)(=O)c3c(F)cccc3F)c2F)c(-c2ccnc(N)n2)s1 [dabrafenib]
induction of BRAF/CRAF heterodimers (BRAF/CRAF heterodimers): equivalent and much greater than that caused by vemurafenib
